# Laboratory results from patent US11104665B2, “Pyridazines” (Boehringer Ingelheim International GmbH, priority 2018, dated 2021).
# Experiments:
# Human ATX = Human ATX (Homo sapiens (Human), UniProt Q13822); experiment: Assay A: Biochemical ATX Assay; settings: recombinant ATX, 18:1 LPC substrate, 18:1 LPA formation; compounds of the invention
# Description: 5 nM recombinant ATX (Cayman Chemicals) was supplemented to 50 mM Tris buffer (pH 8.0) containing 3 mM KCl, 1 mM CaCl2, 1 mM MgCl2 0.14 mM NaCl, and 0.1% bovine serum albumin. Test compounds were dissolved in DMSO and tested in the range of 0.1 nM to 10 μM. The enzymatic reaction (22.5 μL) was started by addition of 2.5 μL 10 μM 18:1 LPC (Avanti Lipids, Alabaster, Ala., USA). After 2-h incubation at room temperature, the reaction was stopped by addition of 20 μL water containing 500 nM 20:4 LPA as internal standard and 100 μL 1-butanol for extracting LPA. Subsequently, the plates were centrifuged at 4000 rpm, 4° C., for 2 min. The resultant upper butanol phase was directly used for injection at a RapidFire system (Agilent).
# The RapidFire autosampler was coupled to a binary pump (Agilent 1290) and a Triple Quad 6500 (ABSciex, Toronto, Canada). This system was equipped with a 10-μL loop, 5 μL Waters Atlantis HILIC cartridge (Waters, Elstree, UK), 90% acetonitrile containing 10 mM ammonium acetate as eluent A and 40% acetonitrile containing 10 mM ammoniumacetate as eluent B. For details see (Bretschneider et al., SLAS Discovery, 2017). 1 The MS was operated in negative mode with a source temperature of 550° C., curtain gas=35, gas 1=65, and gas 2=80. The following transitions and MS parameters (DP: declustering potential and CE: collision energy) for the respective LPAs were determined: 18:1 LPA at 435.2/152.8, DP=−40, CE=−28 and 20:4 LPA at 457.2/152.8, DP=−100, CE=−27).
# The formation of 18:1 LPA was monitored and evaluated as ratio to 20:4 LPA.
# ATX in human whole blood = ATX in human whole blood (Homo sapiens (Human), UniProt Q13822); experiment: Assay B: Whole-Blood ATX Assay; assay type: biochemical; settings: 1 h at 37° C., 18:2 LPA formation, compounds of the invention
# Description: ATX is a soluble plasma protein, which is active in heparinized whole blood. Its substrate LPC is highly abundant, its concentration being in the μM range. Therefore, a whole blood assay at physiological substrate concentrations is a highly relevant assay, predictive for the efficacy of ATX inhibitors in vivo.
# 45 μL human whole-blood was supplemented with 5 μL of the test compound, dissolved in phosphate-buffered saline (concentration range 0.12 nM-100 μM). This mixture was incubated for 1 h at 37° C. and stopped by addition of 100 μL 40 mM disodium hydrogen phosphate buffer containing 30 mM citric acid (pH 4) and 1 μM 17:0 LPA (internal standard). LPA was extracted by addition of 500 μL 1-butanol, followed by 10-min centrifugation at 4000 rpm, 4° C. From the resultant organic supernatant, a 200 μL aliquot was transferred into a 96-deep-well plate and transferred to the RapidFire-based MS/MS measurement.
# The RapidFire autosampler was coupled to a binary pump (Agilent 1290) and a Triple Quad 6500 (ABSciex, Toronto, Canada). This system was equipped with a 10-μL loop, 5-μL Waters Atlantis HILIC cartridge (Waters, Elstree, UK), 90% acetonitrile containing 10 mM ammonium acetate as eluent A and 40% acetonitrile containing 10 mM ammoniumacetate as eluent B. For details see (Bretschneider et al., SLAS Discovery, 2017, 22, 425-432). The MS was operated in negative mode with a source temperature of 550° C., curtain gas=35, gas 1=65, and gas 2=80. The following transitions and MS parameters (DP: declustering potential and CE: collision energy) for the respective LPAs were determined: 18:2 LPA at 433.2/152.8, DP=−150, CE=−27 and 17:0 LPA at 423.5/152.8, DP=−100.
# The formation of 18:2 LPA was monitored and evaluated as ratio to 17:0 LPA.
# LPA levels = settings: as disclosed in ACS Med. Chem. Lett. 2017, 8, 1252-1257; cited from earlier work
# plasma LPA = experiment: Assay C: In Vivo, plasma LPA reduction after oral dosing; set-up: species or system rat; settings: rats, 5 mg/kg, 8 hours post application
# Description: LPA reduction in vivo is determined by measuring the plasma concentration of LPA after oral dosage of the compounds of the present invention. LPA is a very strong bioactive lipid, which efficiently activates downstream pathways via the LPA-receptors 1-6 in a concentration dependent manner. The pronounced and sustained blockage of the LPA formation via ATX inhibition is assessed by measuring the extent of LPA reduction 8 hours after compound dosage. A high reduction of plasma LPA at 8 h is therefore highly indicative for efficacy and sustained duration of action in vivo as well as sustained target engagement of the LPA receptors.
# The test substance was solubilized in 0.5% natrosol supplemented with 0.015% Tween 80 for oral application to rats at a dose of 5 mg/kg. Blood samples were collected before compound administration and 8 hours post application on ice using EDTA as coagulation agent. Subsequently, plasma was prepared by centrifugation and stored until analysis at −20° C.
# LPAs from plasma samples were extracted by using the procedure described by Scherer et al. (Clinical chemistry 2009, 55, 1218-22). 35 μL of heparinized plasma was mixed with 200 μL 40 mM disodium hydrogen phosphate buffer containing 30 mM citric acid (pH 4) and 1 μM 17:0 LPA (internal standard). Subsequently, 500 μL butanol was added and shaken vigorously for 10 min. Samples were centrifuged afterwards at 4000 rpm, 4° C., for 10 min. […]
# A Triple Quad 6500 (ABSciex, Toronto, Canada) was equipped with an Agilent 1290 LC system (Agilent, Santa Clara, Calif.) a CTC autosampler and an Atlantis 50×2.1-mm, 3-μm HILIC LC column (Waters, Elstree, UK). […] The following LPA species were monitored (DP: declustering potential and CE: collision energy): 16:0 LPA at 409.2/152.8, DP=−150, CE=−28; 18:0 LPA at 437.3/152.8, DP=−60, CE=−28; 18:1 LPA at 435.2/152.8, DP=−40, CE=−28; 18:2 LPA at 433.2/152.8, DP=−150, CE=−28; 20:4 LPA at 457.2/152.8, DP=−100, CE=−29 and 17:0 LPA at 423.5/152.8, DP=−100, CE=−36. LPA depletion in percent was calculated based on the baseline LPA levels before test compound application. […]
# [1] = vs baseline, sum of LPA, compounds of the invention
Compound,IC50 (Human ATX) [nM],IC50 (ATX in human whole blood) [nM],LPA levels in vivo (LPA levels),LPA reduction at 8 h (plasma LPA; [1]) [%],LPA reduction at 8 h (plasma LPA; prior art compounds of WO2014/139882) [%]
CC(=O)N1CCN(c2ccc(CNc3ccc(OCc4ccc(OC(F)(F)F)nc4)nn3)cc2)CC1 [Example 1.5],4,9,,,
CC(=O)N1CCN(c2ccc(CNc3ccc(OCc4cc(C#N)cc(OC(F)(F)F)c4)nn3)cc2)CC1 [Example 1.6],5,,,,
CC(=O)N1CCN(c2ccc(CNc3ccc(OCc4ccnc(C#N)c4)nn3)cc2)CC1 [Example 1.3],5,83,,,
O=C(NC[C@@H]1[C@H]2CN(C(=O)OCc3cc(C(F)(F)F)cc(C(F)(F)F)c3)C[C@@H]12)c1ccc2[nH]nnc2c1,,,significantly reduces LPA levels in vivo,,
CC(=O)N1CCN(c2ccc(CNc3ccc(OCc4cccc(C#N)c4)nn3)cc2)CC1 [Example 1.4],4,201,,95.7,
"CCc1nc2c(C)cc(N3CCN(CC(=O)N4CC(O)C4)CC3)cn2c1N(C)c1nc(-c2ccc(F)cc2)c(C#N)s1 [Example 2 in WO2014/139882, reference compound]",,,,,58.1
"CC(=O)N1CCN(c2ccc(CNc3ccc(OCc4cc(Cl)cc(Cl)c4)nn3)cc2)CC1 [Example 1.1, 1-[4-(4-{[6-(3,5-Dichloro-benzyloxy)-pyridazin-3-ylamino]-methyl}-phenyl)-piperazin-1-yl]-ethanone]",6,46,,,
CC(=O)N1CCN(c2ccc(CNc3ccc(OCc4cncc(C#N)c4)nn3)cc2)CC1 [Example 1.2],2,55,,,
"COc1ccc(COc2ccc(NCc3ccc(N4CCN(C(C)=O)CC4)cc3)nn2)cn1 [Example 2.1, 1-[4-(4-{[6-(6-Methoxy-pyridin-3-ylmethoxy)-pyridazin-3-ylamino]-methyl}-phenyl)-piperazin-1-yl]-ethanone]",3,33,,98.3,
COc1ccc(COc2ccc(NCc3ccc(C4CCN(C(C)=O)CC4)cc3)nn2)cn1 [Example 2.2],3,38,,,
CC(=O)N1CCC(c2ccc(CNc3ccc(OCc4ccccc4)nn3)cc2)CC1 [Example 2.5],4,264,,,
CC(=O)N1CCN(c2ccc(CNc3ccc(OCc4ccccc4)nn3)cc2)CC1 [Example 2.4],3,73,,,
COc1cc(COc2ccc(NCc3ccc(N4CCN(C(C)=O)CC4)cc3)nn2)ccn1 [Example 2.3],8,186,,,
